Source: publication PMC8692891 (Frontiers in Immunology, 2021)
Where no end group is shown, it is not given here.

Experiments:
[1] = system: STAT4 expression in MDLCs; assay: STAT4 Western blot in MDLCs; assay type: cell-based, human; details: n = 4; for Total STAT4 expression: MDLCs treated 24 h, CGRP 0.1 μM, SAX 0.1 μM, CGRP1–8 10 μM, LPS 10 μg/ml, normalized to beta actin
Experimental: For PBMCs, cells (2 × 10^6/sample) were activated with PHA (5 μg/ml) + IL2 (100 U/ml) for 48 h at 37°C, serum-starved overnight, and stimulated for 30 min at 37°C with either IL12 (10 ng/ml; R&D systems) or interferon alpha (IFNα, 5 × 10^4 U/ml; pbl Assay Science). For MDLCs, cells (2 × 10^6/sample) were re-suspended in complete RPMI medium without cytokines and rested overnight at 37°C. […] The cells were then washed and stimulated for 30 min at 37°C with combination of IL12 + IFNα at the concentrations indicated above. PBMCs/MDLCs were subsequently lysed for 30 min on ice with 100 μl lysis buffer [50 mM Tris buffer pH = 7.5, 150 mM NaCl, 2 mM EDTA, 1% Triton X100, 0.1% SDS, 1:100 dilutions of phosphatase inhibitors II/III and protease inhibitor cocktail (Sigma)], followed by three cycles of 10 s vortex and 10 min incubation on ice. Lysates were centrifuged for 10 min at 4°C/13,200 rpm, and supernatants were collected and stored at −80°C. […] Blocking was performed for 1 h at room temperature with blocking buffer (Tris-buffered saline (TBS), 0.5% Tween 20, and 0.5% dry milk). The blots were next incubated overnight at 4°C with commercial rabbit polyclonal Abs suitable for WB, directed against human STAT4 (Proteintech #13028-1AP, 0.5 μg/ml) or phosphorylated STAT4 (pSTAT4; R&D systems, #AF4319, 1 μg/ml), followed by 1:1,000 dilution of HRP-conjugated donkey-anti-rabbit IgG Ab (Southern Biotech) for 1 h at room temperature. Loading control was verified by incubation with goat polyclonal Ab to beta actin (abcam, 0.4 μg/ml), followed by 1:5,000 dilution of HRP-conjugated donkey-anti-goat IgG Ab (Promega). All Abs were diluted in blocking buffer, and pre-stained SDS-PAGE standard markers (ThermoFisher) were applied to determine molecular weights. Revelation was performed for 1–10 s with ECL-Prime chemiluminescence detection kit (Amersham). Images were acquired with the Fusion FX camera platform (Vilber Lournmat) and protein expression was quantified with ImageJ software (NIH).
(A, B) PHA/IL2-activated PBMCs were serum-starved overnight at 37°C, and left untreated (Un) or stimulated for 30 min with either IL12 or IFNα. […] (F) MDLCs were treated as described in panels (C, D) above, and further stimulated for 30 min with combination of IL12 + IFNα.

[2] = system: langerin surface expression in MDLCs; assay: Langerin surface expression in MDLCs (flow cytometry); assay type: cell-based, human
Experimental: (§1) For langerin surface expression, MDLCs were washed and stained for 20 min on ice in a final volume of 50 µl PBS with a phycoerythrin (PE)-conjugated mouse monoclonal Ab against human langerin (clone DCGM4, Beckman Coulter), or matched isotype control. For HIV-1 trans-infection, MDLCs were washed and pulsed with HIV-1 ADA (1ng p24 corresponding to multiplicity of infection of 0.2) for 4 h. MDLCs were next incubated with autologous CD4+ T-cells or with green fluorescent protein (GFP)-reporter T-cells, and HIV-1 replication was measured in the co-culture supernatants using p24 ELISA (Fujirebio) or by evaluating GFP fluorescent by flow cytometry, as we described ([13]–[15]). Fluorescent profiles were acquired using a Guava easyCite and analyzed with the InCyte software (Merck-Millipore).
(§2) Data was analyzed using Prism software (GraphPad). Concentration-response curves were analyzed with the [log(agonist) vs. response (three parameters)] model for langrin upregulation and the [log(inhibitor) vs. normalized response − variable slope] model for HIV-1 trans-infection inhibition. The -log molar concentrations of agonists generating 50% response represented potencies (i.e., pEC50 and pIC50). Statistical significance was analyzed with the two-tailed Student’s t-test.
The cells were then stained for surface langerin and examined by flow cytometry.

HIV-1 ADA = assay: MDLCs-mediated HIV-1 trans-infection to CD4+ T-cells; assay type: cell-based; details: for Inhibition of MDLCs-mediated HIV-1 trans-infection (in words): p24 ELISA or GFP-reporter T-cells by flow cytometry
Experimental: as §1, §2
The cells were then pulsed with HIV-1 ADA for 4 h, washed, and incubated for 7 days with autologous CD4+ T-cells (A–C) or 3 days with HIV-1 GFP-reporter T-cells (D). HIV-1 trans-infection and replication in T-cells was evaluated by p24 ELISA in the co-culture supernatants or by GFP expression and flow cytometry.

[3] = cited from earlier work
Source text: However, CGRP-mediated vasodilation is potentially protective, at least during hypertension and cardiovascular complications ([5]).

[4] = system: HIV-1 (V29)-infected PBMCs; assay: HIV-1 infection of dermal T-cells in inner foreskin tissue explants ex-vivo; assay type: cell-based; details: explants pre-treated 24 h at 1 μM, inoculated 4 h, further three days incubation; flow cytometry; n = 4
Experimental: For infection experiments, round (8 mm diameter) inner foreskin tissue pieces were placed in 24-well plates and incubated submerged for 24 h at 37°C with 1 ml complete RPMI medium, alone or supplemented with CGRP or SAX (1 μM, four explants per condition). The tissues were next washed, transferred to two-chamber transwell inserts (Sigma), and inoculated in a polarized manner for 4 h at 37°c with either non-infected or HIV-1 (V29)-infected PBMCs (in duplicates), as we described ([11], [12]).
Dermal cell suspensions were prepared following washing of the explants, additional incubation for three days at 37°C submerged in 1 ml fresh medium, and subsequent enzymatic digestion with collagenase/DNase as we described ([11], [12]). Pooled cells of each duplicate were surface stained as above using FITC-conjugated mouse-anti-human CD3 Ab (Pharmingen), fixed, permeabilized, and stained for 30 min at room temperature with 1:160 dilution of PE-conjugated mouse-anti-human Ab to HIV-1 p24 and core antigens (Beckman Coulter). Fluorescent profiles were recorded using a Guava easyCyte and InCyte software.
(D, E) Other explants were further incubated for additional three days and digested with collagenase/DNase. In panel (D), shown are representative flow cytometry dot plots of dermal cell suspensions double stained for surface CD3 and intracellular p24 and examined by flow cytometry. […]

In the case of “CGRP1–8: previously described CGRP N-terminal fragment (ACDTATCV; not fully specified (bridges); ends and bridges not checked; UniProt P06881 83-90, looked up, fragment)”, the “Total STAT4 expression” value [1] is reported as “failed to increase”, the “Increase in langerin surface expression (in words)” value ([2]; MDLCs treated 24 h, flow cytometry) is reported as “fails to increase” and the “Inhibition of MDLCs-mediated HIV-1 trans-infection (in words)” value (HIV-1 ADA; MDLCs treated 24 h) is reported as “lacks anti-HIV-1 inhibitory activity”.

With `NCCCC[C@H](NC(=O)[C@@H](Cc1cc(Br)c(O)c(Br)c1)NC(=O)N1CCC(N2Cc3ccccc3NC2=O)CC1)C(=O)N1CCN(c2ccncc2)CC1` [BIBN4096] the “Effect of antagonist on CGRP- and SAX-mediated increase in STAT4” value ([1]; BIBN4096 1 μM added 15 min before agonists (0.1 μM)) was “abrogated”, the “Effect of antagonist on CGRP- and SAX-mediated increase in langerin expression” value ([2]; BIBN4096 1 μM added 15 min before agonists (0.1 μM), n = 4) was “completely abrogated” and the “Effect of antagonist on CGRP- and SAX-mediated inhibition of HIV-1 trans-infection” value (HIV-1 ADA; BIBN4096 1 μM added 15 min before agonists (0.1 μM), n = 3) was “completely abrogated”.

With lipopolysaccharide [LPS] the “Total STAT4 expression” value [1] was “significantly increased”.

In the case of “serinyl-CGRP2-37-amide with an albumin binding fatty acid moiety in the N-terminus [SAX]”, the “Total STAT4 expression” value [1] is reported as “significantly increased”, the “Phosphorylation of induced STAT4 (pSTAT4) upon cytokine stimulation” value ([1]; after 24 h agonist treatment, 30 min IL12 + IFNα) is reported as “could be readily phosphorylated” and the “pEC50 [95% CI], increase in langerin surface expression” value ([2]; MDLCs treated 24 h, flow cytometry, -log molar, n = 5) is reported as 8.3 [9.6–6.5]. The “pIC50 [95% CI], inhibition of MDLCs-mediated HIV-1 trans-infection” value (HIV-1 ADA; MDLCs treated 24 h, pulsed with HIV-1 ADA 4 h, 7 days with autologous CD4+ T-cells, p24 ELISA, -log molar, n = 5) was 8.9 [9.9–7.9], the “Inhibition of MDLCs-mediated HIV-1 trans-infection (in words)” value (HIV-1 ADA; MDLCs treated 24 h) was “significantly inhibited” and the “Fold lower potency of SAX than CGRP” value (HIV-1 ADA; blocking HIV-1 trans-infection in MDLCs) was over 10 fold. The “Half-life compared to CGRP” value [3] was “longer” and the “HIV-1 infection of dermal T-cells (p24+CD3+)” value [4] was “undetectable levels”.
